Read-outs that look alike come from different tables or passages of the source.
Columns and labels:
[1] = test system: Key Grass and Sedge Weeds as well as Grass Crops; experiment: Post-emergent Test II herbicidal activity (Table 16); assay type: in vivo; settings: post-emergence, 336 h, 14 d; for pest or weed control at 35 g/ha: 35 g ai/ha; for pest or weed control at 70 g/ha: 70 g ai/ha; for pest or weed control at 140 g/ha: 140 g ai/ha
Method in brief: (§1)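 Greenhouse-grown seedlings at first/second true leaf receive a track spray at 187 L/ha, using a highest rate plus two-fold serial dilutions down to 1/16×. Watering is by subirrigation to avoid wash-off. Percent injury (0-100) is judged by eye at 14 d against untreated plants.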

[2] = test system: Key Broadleaf Weed and Crop Species; experiment: Post-emergent Test II herbicidal activity (Table 15); assay type: in vivo; settings: post-emergence, 336 h, 14 d; for pest or weed control at 35 g/ha: 35 g ai/ha; for pest or weed control at 70 g/ha: 70 g ai/ha; for pest or weed control at 140 g/ha: 140 g ai/ha
Method in brief: as §1

[3] = Cyperus esculentus, yellow nutsedge (Cyperus esculentus), read-out: Visual Growth Reduction (%) 14 Days After Application, CYPES
[4] = Echinochloa crus-galli, barnyardgrass (Echinochloa crus-galli), read-out: Visual Growth Reduction (%) 14 Days After Application, ECHCG
[5] = Oryza sativa, rice (Oryza sativa), read-out: Visual Growth Reduction (%) 14 Days After Application, ORYSA
[6] = Setaria faberi, giant foxtail (Setaria faberi), read-out: Visual Growth Reduction (%) 14 Days After Application, SETFA
[7] = Triticum aestivum, wheat, spring (Triticum aestivum), read-out: Visual Growth Reduction (%) 14 Days After Application, TRZAS
[8] = Zea mays, maize, corn (Zea mays), read-out: Visual Growth Reduction (%) 14 Days After Application, ZEAMX
[9] = Abutilon theophrasti, velvetleaf (Abutilon theophrasti), read-out: Visual Growth Reduction (%) 14 Days After Application, ABUTH
[10] = Amaranthus retroflexus, redroot pigweed (Amaranthus retroflexus), read-out: Visual Growth Reduction (%) 14 Days After Application, AMARE
[11] = Brassica napus, oilseed rape, canola (Brassica napus), read-out: Visual Growth Reduction (%) 14 Days After Application, BRSNN
[12] = Chenopodium album, lambsquarters (Chenopodium album), read-out: Visual Growth Reduction (%) 14 Days After Application, CHEAL
[13] = Euphorbia heterophylla, wild poinsettia (Euphorbia heterophylla), read-out: Visual Growth Reduction (%) 14 Days After Application, EPHHL
[14] = Helianthus annuus, sunflower (Helianthus annuus), read-out: Visual Growth Reduction (%) 14 Days After Application, HELAN

| Compound | pest or weed control at 35 g/ha [1, 3] | pest or weed control at 70 g/ha [1, 3] | pest or weed control at 140 g/ha [1, 3] | pest or weed control at 35 g/ha [1, 4] | pest or weed control at 70 g/ha [1, 4] | pest or weed control at 140 g/ha [1, 4] | pest or weed control at 35 g/ha [1, 5] | pest or weed control at 70 g/ha [1, 5] | pest or weed control at 140 g/ha [1, 5] | pest or weed control at 35 g/ha [1, 6] | pest or weed control at 70 g/ha [1, 6] | pest or weed control at 140 g/ha [1, 6] | pest or weed control at 35 g/ha [1, 7] | pest or weed control at 70 g/ha [1, 7] | pest or weed control at 140 g/ha [1, 7] | pest or weed control at 35 g/ha [1, 8] | pest or weed control at 70 g/ha [1, 8] | pest or weed control at 140 g/ha [1, 8] | pest or weed control at 35 g/ha [2, 9] | pest or weed control at 70 g/ha [2, 9] | further results |
| --- | --- | --- | --- | --- | --- | --- | --- | --- | --- | --- | --- | --- | --- | --- | --- | --- | --- | --- | --- | --- | --- |
| COC(=O)c1nc(-c2ccc3cc[nH]c3c2)c(C)c(N)c1Cl [Compound 1.28] | 0 to 29% | 0 to 29% | 0 to 29% | 0 to 29% | 0 to 29% | 0 to 29% | 0 to 29% | 0 to 29% | 0 to 29% | 0 to 29% | 0 to 29% | 0 to 29% | 0 to 29% | 30 to 44% | 30 to 44% | 0 to 29% | 0 to 29% | 0 to 29% | 85 to 94% | 85 to 94% | pest or weed control at 140 g/ha [2, 9]: 95 to 100%; pest or weed control at 35 g/ha [2, 10]: 0 to 29%; pest or weed control at 70 g/ha [2, 10]: 0 to 29%; pest or weed control at 140 g/ha [2, 10]: 60 to 74%; pest or weed control at 35 g/ha [2, 11]: 75 to 84%; pest or weed control at 70 g/ha [2, 11]: 85 to 94%; pest or weed control at 140 g/ha [2, 11]: 85 to 94%; pest or weed control at 35 g/ha [2, 12]: 45 to 59%; pest or weed control at 70 g/ha [2, 12]: 60 to 74%; pest or weed control at 140 g/ha [2, 12]: 60 to 74%; pest or weed control at 35 g/ha [2, 13]: 0 to 29%; pest or weed control at 70 g/ha [2, 13]: 0 to 29%; pest or weed control at 140 g/ha [2, 13]: 0 to 29%; pest or weed control at 35 g/ha [2, 14]: 95 to 100%; pest or weed control at 70 g/ha [2, 14]: 95 to 100%; pest or weed control at 140 g/ha [2, 14]: 95 to 100%; melting point: 231 to 234 °C |
| Cc1c(-c2ccc3cc[nH]c3c2)nc(C(=O)O)c(Cl)c1N [Compound 1.29] | 0 to 29% | 0 to 29% | 30 to 44% | 0 to 29% | 0 to 29% | 0 to 29% | 0 to 29% | 0 to 29% | 0 to 29% | 0 to 29% | 0 to 29% | 0 to 29% | 0 to 29% | 0 to 29% | 0 to 29% | 0 to 29% | 0 to 29% | 0 to 29% | 0 to 29% | 0 to 29% | pest or weed control at 140 g/ha [2, 9]: 0 to 29%; pest or weed control at 35 g/ha [2, 10]: 45 to 59%; pest or weed control at 70 g/ha [2, 10]: 0 to 29%; pest or weed control at 140 g/ha [2, 10]: 0 to 29%; pest or weed control at 35 g/ha [2, 11]: 75 to 84%; pest or weed control at 70 g/ha [2, 11]: 75 to 84%; pest or weed control at 140 g/ha [2, 11]: 85 to 94%; pest or weed control at 35 g/ha [2, 12]: 45 to 59%; pest or weed control at 70 g/ha [2, 12]: 45 to 59%; pest or weed control at 140 g/ha [2, 12]: 75 to 84%; pest or weed control at 35 g/ha [2, 13]: 0 to 29%; pest or weed control at 70 g/ha [2, 13]: 0 to 29%; pest or weed control at 140 g/ha [2, 13]: 0 to 29%; pest or weed control at 35 g/ha [2, 14]: 60 to 74%; pest or weed control at 70 g/ha [2, 14]: 60 to 74%; pest or weed control at 140 g/ha [2, 14]: 75 to 84%; melting point: 168 to 175 °C |
